{
  "source": "patent US20060014940A1",
  "about": "“Cloning and characterization of slc26a6, slc26a1, and slc26a2 anion exchangers” (priority 2002, published 2006)",
  "key": {"[1]": {"molecular_target": "T1, mouse SLC26A1 (Mus musculus, UniProt P58735, C691Y)", "T1 construct": "Full-length mouse SLC26A6b and SLC26A 1 cDNAs were cloned into the Xenopus expression vector pGEMHE; expressed in transfected cells; host or cells: Xenopus laevis oocytes injected with in vitro transcribed cRNA (pGEMHE)", "T1 sequence (P58735 1-704 C691Y)": "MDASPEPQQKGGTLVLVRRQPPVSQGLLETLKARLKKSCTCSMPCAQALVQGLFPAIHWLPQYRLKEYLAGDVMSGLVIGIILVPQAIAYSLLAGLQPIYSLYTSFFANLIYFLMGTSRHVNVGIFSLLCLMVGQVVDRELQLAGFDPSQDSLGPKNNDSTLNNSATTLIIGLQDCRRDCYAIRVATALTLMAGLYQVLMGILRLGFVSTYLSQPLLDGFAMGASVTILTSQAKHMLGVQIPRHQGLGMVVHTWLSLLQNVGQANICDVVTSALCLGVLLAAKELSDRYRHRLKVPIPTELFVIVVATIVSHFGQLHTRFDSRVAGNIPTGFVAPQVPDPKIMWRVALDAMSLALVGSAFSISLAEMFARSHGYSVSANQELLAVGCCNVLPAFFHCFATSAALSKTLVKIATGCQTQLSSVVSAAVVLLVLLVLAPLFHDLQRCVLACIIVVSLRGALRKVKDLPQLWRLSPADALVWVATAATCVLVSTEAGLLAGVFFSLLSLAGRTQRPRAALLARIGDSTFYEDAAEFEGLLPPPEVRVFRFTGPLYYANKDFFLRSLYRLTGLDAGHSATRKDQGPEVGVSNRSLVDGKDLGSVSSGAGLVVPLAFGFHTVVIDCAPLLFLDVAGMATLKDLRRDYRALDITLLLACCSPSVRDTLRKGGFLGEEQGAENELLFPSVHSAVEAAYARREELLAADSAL", "experiment": "Radiolabelled anion uptake in Xenopus oocytes expressing mouse SLC26A1", "format": "cell-based", "procedure": "Full-length mouse SLC26A6b and SLC26A 1 cDNAs were cloned into the Xenopus expression vector pGEMHE (Liman et al., 1992). The SLC26A6 and SLC26A1 expression constructs were linearized, and cRNA was transcribed in vitro using T7 RNA polymerase and a […] MMACHINE® transcription kit (Ambion, Inc. of Austin, Tex., United States of America). Defolliculated oocytes were injected with 25 nl to 50 nl of water or with a solution containing cRNA at a concentration of 0.5 μg/μl (12.5 ng to 25 ng per oocyte) using a Nanoliter-2000 injector (WPI Instruments of Sarasota, Fla., United States of America). Oocytes were incubated at 17° C. in 50% Leibovitz's L-15 media supplemented with penicillin/streptomycin (1000 units/ml) and glutamine for 2-3 days for uptake assays.\nFor sulphate uptake assays, oocytes were pre-incubated for 20 minutes in chloride-free uptake medium (100 mM NMDG gluconate, 2 mM potassium gluconate, 1 mM calcium gluconate, 1 mM magnesium gluconate, 10 mM HEPES-Tris, pH 6.0 or pH 7.5 as indicated), followed by a 60-minute period for uptake in the same medium supplemented with 1 mM K2^35SO4 (40 μCi/ml). The cells were then washed three times in uptake buffer with 5 mM cold K2SO4 to remove tracer activity in the extracellular fluid. The oocytes were dissolved individually in 10% SDS, and tracer activity was determined by scintillation counting. Uptake of chloride, formate, and oxalate was assayed using the same chloride-free uptake solutions, substituting 8.3 mM ^36Cl, 500 μM [^14C]oxalate, or 50 μM [^14C]formate for labeled sulphate.\nFor sulphate exchange and cis-inhibition experiments, the concentration of NMDG-gluconate in the uptake solution was adjusted to maintain isotonic osmolality, which was confirmed experimentally using a FISKE® osmometer (Fiske Associates, Inc. of Bethel, Conn., United States of America)."}, "[2]": {"molecular_target": "T2, rat DTDST (Rattus norvegicus, UniProt O70531)", "T2 sequence (O70531 1-739)": "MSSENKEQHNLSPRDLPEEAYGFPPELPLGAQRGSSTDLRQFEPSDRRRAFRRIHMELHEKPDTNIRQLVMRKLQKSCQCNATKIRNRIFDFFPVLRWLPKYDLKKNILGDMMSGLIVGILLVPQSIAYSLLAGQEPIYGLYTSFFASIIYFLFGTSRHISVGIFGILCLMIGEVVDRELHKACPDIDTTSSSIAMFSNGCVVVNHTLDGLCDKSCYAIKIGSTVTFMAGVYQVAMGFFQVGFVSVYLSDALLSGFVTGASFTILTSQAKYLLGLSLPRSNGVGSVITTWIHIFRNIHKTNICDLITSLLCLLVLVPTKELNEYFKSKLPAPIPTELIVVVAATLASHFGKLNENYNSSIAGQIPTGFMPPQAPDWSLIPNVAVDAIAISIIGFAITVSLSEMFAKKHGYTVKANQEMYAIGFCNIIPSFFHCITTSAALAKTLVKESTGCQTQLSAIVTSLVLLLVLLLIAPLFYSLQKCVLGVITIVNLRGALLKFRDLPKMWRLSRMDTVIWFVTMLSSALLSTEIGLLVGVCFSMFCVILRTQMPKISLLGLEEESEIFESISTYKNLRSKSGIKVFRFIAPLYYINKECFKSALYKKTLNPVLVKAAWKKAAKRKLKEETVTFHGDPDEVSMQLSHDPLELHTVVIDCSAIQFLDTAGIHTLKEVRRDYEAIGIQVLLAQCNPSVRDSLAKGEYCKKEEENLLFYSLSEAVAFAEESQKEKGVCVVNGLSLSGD", "conditions": "Satoh, 1998; cited from earlier work"}},
  "data": [
    {"smiles": "O=C(O)C(=O)O", "note": "[oxalate]", "values": [
      {"measurement": "effect of extracellular anion on SO4 2− transport via SLC26A1", "setting": "[1]; 25 mM of the anion (FIG. 9A, 6C)", "result": "strongly cis-inhibitory"},
      {"measurement": "oxalate uptake", "setting": "[1]; SLC26A1-injected oocytes (FIG. 8A)", "result": "72±2", "unit": "pmol/oocyte/h"},
      {"measurement": "cis-inhibition of sulphate transport", "setting": "[2]", "result": "cis-inhibited"}
    ]}
  ]
}
